Laboratory results as given in the NIST ThermoML archive (doi:10.1016/j.fluid.2014.10.002).
“And” between values parts separate entries of the source, which are not always exact repeats. Equal entries are not always repeated.

Conditions: Liquid

CCCCC(CC)COC(=O)c1ccc(C(=O)OCC(CC)CCCC)c(C(=O)OCC(CC)CCCC)c1 (stereo unspecified) [tris(2-ethylhexyl) trimellitate]
Conditions | viscosity
303.15 K, 980 kPa, Vibrating wire viscometry | 158.5 mPa·s
303.15 K, 1030 kPa, Vibrating wire viscometry | 158.4 mPa·s
303.15 K, 1080 kPa, Vibrating wire viscometry | 158.9 mPa·s
303.15 K, 15060 kPa, Vibrating wire viscometry | 220.6 mPa·s and 220.2 mPa·s
303.15 K, 29810 kPa, Vibrating wire viscometry | 302.4 mPa·s and 302.1 mPa·s
303.15 K, 29820 kPa, Vibrating wire viscometry | 303.1 mPa·s
303.16 K, 2820 kPa, Vibrating wire viscometry | 165 mPa·s
303.16 K, 2850 kPa, Vibrating wire viscometry | 165.1 mPa·s and 165.7 mPa·s
303.16 K, 5120 kPa, Vibrating wire viscometry | 174.3 mPa·s
303.16 K, 5130 kPa, Vibrating wire viscometry | 173.4 mPa·s and 173.8 mPa·s and 173.6 mPa·s
303.16 K, 7680 kPa, Vibrating wire viscometry | 183.8 mPa·s [middle of 4 runs]
303.16 K, 7690 kPa, Vibrating wire viscometry | 183.8 mPa·s
303.16 K, 9830 kPa, Vibrating wire viscometry | 193.9 mPa·s
303.16 K, 9850 kPa, Vibrating wire viscometry | 193.9 mPa·s
303.16 K, 9880 kPa, Vibrating wire viscometry | 194.1 mPa·s
303.16 K, 19950 kPa, Vibrating wire viscometry | 242.6 mPa·s
303.16 K, 19980 kPa, Vibrating wire viscometry | 242.8 mPa·s
303.16 K, 19990 kPa, Vibrating wire viscometry | 242.8 mPa·s
303.16 K, 20010 kPa, Vibrating wire viscometry | 243.8 mPa·s
303.16 K, 29820 kPa, Vibrating wire viscometry | 303.5 mPa·s and 303.8 mPa·s
303.16 K, 29830 kPa, Vibrating wire viscometry | 302.3 mPa·s
303.16 K, 40160 kPa, Vibrating wire viscometry | 369.8 mPa·s
303.16 K, 40170 kPa, Vibrating wire viscometry | 370.5 mPa·s and 373.1 mPa·s and 370.9 mPa·s
303.16 K, 40180 kPa, Vibrating wire viscometry | 373.2 mPa·s and 369.5 mPa·s
303.17 K, 101.33 kPa, Capillary tube (Ostwald / Ubbelohde) method | 153.9 mPa·s
303.17 K, 50390 kPa, Vibrating wire viscometry | 462.2 mPa·s
303.17 K, 50400 kPa, Vibrating wire viscometry | 462.1 mPa·s [middle of 4 runs]
313.16 K, 1220 kPa, Vibrating wire viscometry | 87.78 mPa·s
313.16 K, 1230 kPa, Vibrating wire viscometry | 87.98 mPa·s
313.16 K, 1310 kPa, Vibrating wire viscometry | 88.02 mPa·s
313.16 K, 1320 kPa, Vibrating wire viscometry | 87.62 mPa·s and 87.55 mPa·s
313.16 K, 2780 kPa, Vibrating wire viscometry | 90.52 mPa·s
313.16 K, 5160 kPa, Vibrating wire viscometry | 96.14 mPa·s
313.16 K, 5170 kPa, Vibrating wire viscometry | 96.24 mPa·s
313.16 K, 5190 kPa, Vibrating wire viscometry | 96.26 mPa·s
313.16 K, 5210 kPa, Vibrating wire viscometry | 95.79 mPa·s
313.16 K, 7710 kPa, Vibrating wire viscometry | 101.6 mPa·s
313.16 K, 7780 kPa, Vibrating wire viscometry | 101.7 mPa·s and 101.9 mPa·s and 101.4 mPa·s
313.16 K, 7790 kPa, Vibrating wire viscometry | 101.3 mPa·s
313.16 K, 14800 kPa, Vibrating wire viscometry | 117.6 mPa·s
313.16 K, 14820 kPa, Vibrating wire viscometry | 117.4 mPa·s
313.16 K, 20040 kPa, Vibrating wire viscometry | 132.4 mPa·s
313.16 K, 20050 kPa, Vibrating wire viscometry | 131.6 mPa·s
313.16 K, 20060 kPa, Vibrating wire viscometry | 131.6 mPa·s
313.16 K, 29930 kPa, Vibrating wire viscometry | 159.8 mPa·s
313.16 K, 29970 kPa, Vibrating wire viscometry | 160.2 mPa·s
313.16 K, 29980 kPa, Vibrating wire viscometry | 159.8 mPa·s
313.16 K, 39960 kPa, Vibrating wire viscometry | 197.4 mPa·s
313.16 K, 39980 kPa, Vibrating wire viscometry | 197 mPa·s
313.16 K, 40000 kPa, Vibrating wire viscometry | 196.9 mPa·s
313.16 K, 40020 kPa, Vibrating wire viscometry | 196.6 mPa·s
313.16 K, 50020 kPa, Vibrating wire viscometry | 239.1 mPa·s
313.16 K, 50040 kPa, Vibrating wire viscometry | 240.3 mPa·s and 239.4 mPa·s
313.16 K, 50070 kPa, Vibrating wire viscometry | 239.5 mPa·s
313.16 K, 50080 kPa, Vibrating wire viscometry | 239.6 mPa·s
313.16 K, 50090 kPa, Vibrating wire viscometry | 239.3 mPa·s
313.16 K, 65420 kPa, Vibrating wire viscometry | 317.8 mPa·s
313.16 K, 65430 kPa, Vibrating wire viscometry | 319 mPa·s
313.16 K, 65440 kPa, Vibrating wire viscometry | 319.8 mPa·s
313.16 K, 65470 kPa, Vibrating wire viscometry | 317.5 mPa·s
313.17 K, 2780 kPa, Vibrating wire viscometry | 90.59 mPa·s and 90.6 mPa·s
313.17 K, 2790 kPa, Vibrating wire viscometry | 90.29 mPa·s and 90.54 mPa·s
313.17 K, 2800 kPa, Vibrating wire viscometry | 90.3 mPa·s
313.17 K, 5170 kPa, Vibrating wire viscometry | 95.9 mPa·s
313.17 K, 14770 kPa, Vibrating wire viscometry | 117 mPa·s
313.17 K, 20060 kPa, Vibrating wire viscometry | 132 mPa·s
313.17 K, 29940 kPa, Vibrating wire viscometry | 159.5 mPa·s
313.18 K, 101.33 kPa, Capillary tube (Ostwald / Ubbelohde) method | 86.37 mPa·s
323.1 K, 101.33 kPa, Capillary tube (Ostwald / Ubbelohde) method | 52.41 mPa·s
328.06 K, 101.33 kPa, Capillary tube (Ostwald / Ubbelohde) method | 41.71 mPa·s
328.15 K, 2490 kPa, Vibrating wire viscometry | 43.18 mPa·s
328.15 K, 2520 kPa, Vibrating wire viscometry | 43.29 mPa·s
328.15 K, 5120 kPa, Vibrating wire viscometry | 45.81 mPa·s
328.15 K, 7540 kPa, Vibrating wire viscometry | 47.59 mPa·s
328.15 K, 7550 kPa, Vibrating wire viscometry | 47.68 mPa·s
328.15 K, 7560 kPa, Vibrating wire viscometry | 47.66 mPa·s
328.15 K, 10410 kPa, Vibrating wire viscometry | 50.91 mPa·s
328.15 K, 10430 kPa, Vibrating wire viscometry | 50.81 mPa·s
328.15 K, 15140 kPa, Vibrating wire viscometry | 55.66 mPa·s
328.15 K, 20020 kPa, Vibrating wire viscometry | 60.75 mPa·s
328.15 K, 20040 kPa, Vibrating wire viscometry | 60.75 mPa·s and 60.87 mPa·s
328.15 K, 30400 kPa, Vibrating wire viscometry | 74.44 mPa·s
328.15 K, 30410 kPa, Vibrating wire viscometry | 74.65 mPa·s
328.15 K, 30420 kPa, Vibrating wire viscometry | 74.52 mPa·s
328.15 K, 40610 kPa, Vibrating wire viscometry | 89.47 mPa·s
328.15 K, 50030 kPa, Vibrating wire viscometry | 105.8 mPa·s and 105.5 mPa·s and 105.9 mPa·s
328.15 K, 50040 kPa, Vibrating wire viscometry | 105.5 mPa·s and 105.7 mPa·s
328.15 K, 50050 kPa, Vibrating wire viscometry | 105.7 mPa·s
328.15 K, 50070 kPa, Vibrating wire viscometry | 105.9 mPa·s
328.15 K, 50080 kPa, Vibrating wire viscometry | 105.8 mPa·s
328.15 K, 65530 kPa, Vibrating wire viscometry | 139.6 mPa·s
328.16 K, 1000 kPa, Vibrating wire viscometry | 41.66 mPa·s
328.16 K, 1030 kPa, Vibrating wire viscometry | 41.61 mPa·s and 41.82 mPa·s
328.16 K, 1050 kPa, Vibrating wire viscometry | 41.76 mPa·s
328.16 K, 2510 kPa, Vibrating wire viscometry | 43.2 mPa·s
328.16 K, 2520 kPa, Vibrating wire viscometry | 43.23 mPa·s
328.16 K, 2530 kPa, Vibrating wire viscometry | 43.31 mPa·s
328.16 K, 5100 kPa, Vibrating wire viscometry | 45.73 mPa·s and 45.69 mPa·s
328.16 K, 5130 kPa, Vibrating wire viscometry | 45.73 mPa·s and 45.72 mPa·s
328.16 K, 5140 kPa, Vibrating wire viscometry | 45.67 mPa·s
328.16 K, 7580 kPa, Vibrating wire viscometry | 47.76 mPa·s
328.16 K, 10390 kPa, Vibrating wire viscometry | 50.78 mPa·s
328.16 K, 10400 kPa, Vibrating wire viscometry | 50.84 mPa·s and 50.82 mPa·s
328.16 K, 10410 kPa, Vibrating wire viscometry | 50.74 mPa·s
328.16 K, 15100 kPa, Vibrating wire viscometry | 55.71 mPa·s
328.16 K, 15110 kPa, Vibrating wire viscometry | 55.52 mPa·s
328.16 K, 15130 kPa, Vibrating wire viscometry | 55.62 mPa·s
328.16 K, 20020 kPa, Vibrating wire viscometry | 60.83 mPa·s
328.16 K, 20030 kPa, Vibrating wire viscometry | 60.93 mPa·s
328.16 K, 30420 kPa, Vibrating wire viscometry | 74.4 mPa·s
328.16 K, 40570 kPa, Vibrating wire viscometry | 89.15 mPa·s
328.16 K, 40590 kPa, Vibrating wire viscometry | 89.1 mPa·s
328.16 K, 40620 kPa, Vibrating wire viscometry | 89.25 mPa·s
328.16 K, 50040 kPa, Vibrating wire viscometry | 105.5 mPa·s
328.16 K, 65490 kPa, Vibrating wire viscometry | 139.6 mPa·s
343.14 K, 1080 kPa, Vibrating wire viscometry | 22.75 mPa·s
343.14 K, 10140 kPa, Vibrating wire viscometry | 27.1 mPa·s
343.14 K, 10150 kPa, Vibrating wire viscometry | 27.11 mPa·s and 27.07 mPa·s
343.14 K, 19890 kPa, Vibrating wire viscometry | 32.41 mPa·s
343.14 K, 19900 kPa, Vibrating wire viscometry | 32.35 mPa·s and 32.43 mPa·s
343.14 K, 19910 kPa, Vibrating wire viscometry | 32.45 mPa·s
343.14 K, 19920 kPa, Vibrating wire viscometry | 32.38 mPa·s
343.14 K, 19930 kPa, Vibrating wire viscometry | 32.41 mPa·s
343.14 K, 30240 kPa, Vibrating wire viscometry | 38.59 mPa·s
343.14 K, 30250 kPa, Vibrating wire viscometry | 38.67 mPa·s and 38.63 mPa·s and 38.6 mPa·s
343.14 K, 30260 kPa, Vibrating wire viscometry | 38.59 mPa·s
343.14 K, 40260 kPa, Vibrating wire viscometry | 45.94 mPa·s
343.14 K, 40270 kPa, Vibrating wire viscometry | 45.89 mPa·s and 45.83 mPa·s
343.14 K, 40280 kPa, Vibrating wire viscometry | 45.91 mPa·s
343.14 K, 49840 kPa, Vibrating wire viscometry | 53.72 mPa·s and 53.82 mPa·s
343.14 K, 49860 kPa, Vibrating wire viscometry | 53.79 mPa·s
